From patent publication US8309766B2 (Obschestvo S. Organichennoi Otvetstvennostiyu …, priority 2005, dated 2012)
Like-named read-outs stand apart in the source and are kept apart here.

Columns and labels:
[1] = test system: cyclooxygenase; assay: In vitro effect on [14C]arachidonic acid metabolism in a cell-free homogenate of murine pulmonary tissue; assay type: biochemical, CBA mice; conditions: compound 10^−4 M; for Prostanoids / 6-keto-PGF1α / AA (arachidonic acid) / PGE2 / PGF2α / TXB2: 37° C., 30 minutes; for Prostanoids: b308 reads these as % cyclooxygenase inhibition; for 6-keto-PGF1α / AA (arachidonic acid) / PGE2 / PGF2α / TXB2: change
Experimental: Studies of arachidonic acid metabolism was carried out on females CBA mice who where fed a standard vivarium fodder. Animals (mice) were sacrificed, lungs were extracted, homogenized in a glass homogenizer manufactured by the firm “Wheaton” (USA) at 4° C. in 10 volumes of 0.05 M Tris-HCl buffer. Aliquots (0.5 ml) of supernatant were incubated in 0.5 μCi [1-C^14]-arachidonic acid [C^14]-AA, “Amersham”, England; specific activity 50-60 μCi/mmole) at 37° C. for 30 minutes. Non-metabolized [αC^14]-AA and products of metabolism thereof were extracted in 20 volumes of chloroform and methanol mixture (1:1) in extraction efficacy not less than 90% assessed using [C^14]-PGF2α. [C^14]-AA and metabolites thereof were separated and identified using TLC (the plates Kieselgel 60 of the “Merck” firm, Germany) using as an organic phase, the system of solvents (ethylacetate, isooctane, acetic acid, water—110:50:20:100) and labeled standards. Densitometry of autoradiochromograms obtained on the X-ray film X-Omat AR (“Kodak”, USA) and HS 11 (“ORWO”, Germany), was performed on the densiscan KS 3 (“Kipp and Zonnen”, Holland). Quantitative analysis of individual eicosanoids was carried out using radiometry of fractions obtained by high-performance liquid chromatography (the HPLC-system of the “Gilson” form, France; the column ZORBAX C8 of the “Du Pont” firm, USA) and by elution of spots on TLC-plates. The tested compounds were administered at concentration 10^−4 M.

[2] = test system: "hot plate" test in mice; assay: Analgetic activity on the model "hot plate"; assay type: in vivo, white mongrel mice; conditions: 10 mg/kg; for response vs control in vivo at 10 mg/kg / change in vivo at 10 mg/kg: Mus musculus; for response vs control in vivo at 10 mg/kg / Latent time of NT (%): percent of background; for response vs control in vivo at 10 mg/kg: read-out: Latent time of NT (%); for change in vivo at 10 mg/kg: read-out: Analgesia (%)
Experimental: The tests were conducted on males of white mongrel mice weighing 22-24 grams. The animals were individually placed on a hot plate (manufactured by the firm “Ugo Basile”), a temperature of which remained constant and was equal to 55° C. The following first manifestations of pain reaction were recorded: licking paws, jumping up prior to administration of a substance (background parameters) and 0.5, 1, 2, 3 and 4 hours post administration of a substance. Substances were administered […] (using a probe). A weighed amount of a substance was thoroughly mixed in 0.1 ml Tween 80 until a solution was obtained, then normal saline was added up to a volume of 0.5 ml. Average latent time of nociception threshold (NT) was calculated in every group. The results obtained were expressed in percent of the background values. Analgetic effect (in %) was calculated according to the formula: A−100%=X, wherein A is a background parameter; X is analgetic effect (in %)
A is (time 0.5 to 4 hours post administration×100%): background time
As reference drugs, Analgin (150 mg/kg), Paracetamol (200 mg/kg), Ketorol (10 mg/kg), were used.

[3] = test system: "acetic contortions" in mice; assay: Analgetic activity on the model "acetic contortions"; assay type: in vivo, white mongrel mice; conditions: dose 10 mg/kg (table title); for inhibition in vivo at 10 mg/kg / response vs control in vivo at 10 mg/kg: Mus musculus, ip, 0.25 h; for inhibition in vivo at 10 mg/kg: read-out: Analgetic effect (%); for response vs control in vivo at 10 mg/kg: read-out: C, % to the control; for C ± m (the number of contortions for 15 minutes): 60 minutes prior to acetic acid
Experimental: The tests were conducted on males of white mongrel mice weighing 22-24 grams. The specific pain response (“contortions”) were elicited by intraperitoneal administration to mice of 0.75% acetic acid solution. The following signs were taken into consideration: the number of seizure contractions of abdominal muscles accompanied by stretching the hind limbs and sagging the back. Analgetic effect was assessed by decrease in the number of contortions in animals in percent to the control for 15 minutes post administration of acetic acid. The technique of the tests is disclosed in Koster R., Anderson M., de Beer B.//Fed. Proc. 1959. V. 18. P. 412. Compounds under testing were administered intraperitoneally (using a probe) at a dose 10 μg/kg 60 minutes prior to injection of the acid. Diclofenac (10 mg/kg) was used as a reference drug. Analgetic effect was calculated according to the formula: […]
wherein Ck is the number of contortions in the control group,
Co is the number of contortions in the test group.

[4] = 120 minutes post administration
[5] = 240 minutes post administration

SMILES | Prostanoids [1] | AA (arachidonic acid) [1] | latent time of nociception threshold, M ± m ([2]; 30 minutes post administration) [s] | latent time of nociception threshold, M ± m ([2]; 60 minutes post administration) [s] | latent time of nociception threshold, M ± m [2, 4] [s] | latent time of nociception threshold, M ± m [2, 5] [s] | response vs control in vivo at 10 mg/kg ([2]; 0.5 h, 30 minutes) [%] | change in vivo at 10 mg/kg ([2]; 0.5 h, 30 minutes) [%] | response vs control in vivo at 10 mg/kg ([2]; 1 h, 60 minutes) [%] | change in vivo at 10 mg/kg ([2]; 1 h, 60 minutes) [%] | response vs control in vivo at 10 mg/kg ([2]; 2 h, 120 minutes) [%] | change in vivo at 10 mg/kg ([2]; 2 h, 120 minutes) [%] | inhibition in vivo at 10 mg/kg [3] [%] | response vs control in vivo at 10 mg/kg [3] [%] | C ± m (the number of contortions for 15 minutes) [3] | other results
O=C(CCc1ccc(O)cc1)N[C@@H](Cc1ccc(O)cc1)C(=O)O [Compound XIV, 3-(p-hydroxyphenyl)-propionyltyrosine] | −35 | +84 | 5.59 ± 1.12 | 4.7 ± 0.51 | 7.3 ± 1.09 | 6.78 ± 0.504 | 150 | 50.3 | 126 | 26.3 | 196 | 96.2 | – | – | – | 6-keto-PGF1α [1]: −24; PGE2 [1]: −54; PGF2α [1]: −24; TXB2 [1]: −49; response vs control in vivo at 10 mg/kg ([2]; 4 h, 240 minutes): 182%; change in vivo at 10 mg/kg ([2]; 4 h, 240 minutes): 82.3%
O=C(CCc1ccccc1)NCCc1ccc(O)cc1 [Compound XII, 3-phenylpropionyltyramine] | −44 | +42 | – | – | – | – | – | – | – | – | – | – | 41.4 | 58.6 | 20.1 ± 2.1 | 6-keto-PGF1α / PGF2α ([1]; first of only four cells in the row): −42; TXB2 / PGE2 ([1]; second of only four cells in the row): −47
O=C(CCc1ccccc1)NCCc1ccccc1 [Compound XI, 3-phenylpropionylphenylethylamine] | – | – | 5.35 ± 0.98 | 6.49 ± 1.1 | – | 4.07 ± 0.26 | 143 | 43.4 | 174 | 74 | – | – | 38.2 | 61.8 | 21.2 ± 2.5 | latent time of nociception threshold, M ± m ([2]; 180 minutes post administration): 6.27 ± 0.33 s; response vs control in vivo at 10 mg/kg ([2]; 3 h, 180 minutes): 141%; change in vivo at 10 mg/kg ([2]; 3 h, 180 minutes): 41.3%; response vs control in vivo at 10 mg/kg ([2]; 4 h, 240 minutes): 136%; change in vivo at 10 mg/kg ([2]; 4 h, 240 minutes): 35.9%
CC(=O)N[C@@H](Cc1ccc(O)cc1)C(=O)NCCc1ccccc1 [Compound XXVIII, acetyltyrosylphenylethylamine] | – | – | 9.2 ± 1.8 | 8.1 ± 1.0 | 11.6 ± 2.5 | – | 192 | 91.7 | 169 | 68.8 | 242 | 142 | 42.1 | 57.9 | 15.9 ± 2.4 | –
O=C(CCc1ccccc1)N[C@@H](Cc1ccc(O)cc1)C(=O)OCc1ccccc1 [Compound XXX, 3-phenylproponyltyrosine benzyl ester] | – | – | 6.9 ± 0.8 | 9.0 ± 0.9 | 9.1 ± 1.4 | – | – | – | – | – | – | – | – | – | 11.9 ± 1.7 | Analgesia (%) ([2]; 30 minutes): 68.3%; Latent time of NT (%) ([2]; 30 minutes): 168.3%; Analgesia (%) ([2]; 60 minutes): 113.8%; Latent time of NT (%) ([2]; 60 minutes): 213.8%; Analgesia (%) ([2]; 120 minutes): 121.9%; Latent time of NT (%) ([2]; 120 minutes): 221.9%; Analgetic effect, % [3]: 36.1%; C, % to the control [3]: 63.9%
COC(=O)[C@H](Cc1ccccc1)NC(=O)CCc1ccc(O)cc1 [Compound XIII, 3-(p-hydroxyphenyl)-propionylphenylalanine methyl ester] | – | – | 5.9 ± 0.3 | 6.7 ± 0.7 | 6.8 ± 0.3 | – | 107 | 7.3 | 122 | 21.8 | 124 | 23.6 | 48.4 | 51.6 | 14.6 ± 1.8 | –
O=C(CCc1ccc(O)cc1)NCCc1ccc(O)cc1 [Compound X, 3-(p-hydroxyphenyl)-propionyltyramine] | −22 | +27 | 7.54 ± 0.78 | 5.75 ± 0.83 | 8.50 ± 1.03 | 8.84 ± 0.925 | – | – | – | – | – | – | 54 | 46 | 11.0 ± 2.4 | 6-keto-PGF1α [1]: −9; PGE2 [1]: −38; PGF2α [1]: −15; TXB2 [1]: −42; Analgesia (%) ([2]; 30 minutes): 75.3%; Latent time of NT (%) ([2]; 30 minutes): 175.3%; Analgesia (%) ([2]; 60 minutes): 33.8%; Latent time of NT (%) ([2]; 60 minutes): 133.7%; Analgesia (%) ([2]; 120 minutes): 97.7%; Latent time of NT (%) ([2]; 120 minutes): 197.7%; Analgesia (%) ([2]; 240 minutes): 100.6%; Latent time of NT (%) ([2]; 240 minutes): 200.6%
CC(=O)N[C@@H](Cc1ccc(O)cc1)C(=O)NCCc1ccc(O)cc1 [Compound XXIX, acetyltyrosyltyramine] | – | – | 6.3 ± 1.2 | 7.2 ± 0.8 | 8.0 ± 1.0 | – | 197 | 197 | 225 | 125 | 250 | 150 | 42.9 | 57.1 | 15.7 ± 1.9 | –
O=C(Cc1ccc(O)cc1)NC(Cc1ccccc1)C(=O)O (stereo not shown) [Compound III, p-hydroxyphenylacetylphenylalanine] | – | – | 6.7 ± 0.9 | 5.9 ± 0.8 | 7.0 ± 0.6 | – | 181 | 81 | 160 | 59.5 | 189 | 89.2 | 39.9 | 60.2 | 19.4 ± 3.3 | –
